Source: patent US20100075917A1, “THIONUCLEOSIDES AND PHARMACEUTICAL APPLICATIONS” (priority 2006, published 2010)
Where two headings read alike, the source gives them in different places.

Legend:
[1] = system: MCF-7 mammary carcinoma cells; test: Cytotoxicity (MTT) on MCF-7 cells; assay type: cell-based, human; conditions: for CC50: Homo sapiens, MCF7, read-out: CC50 MCF-7
Experimental: (§1) The cytotoxic effect of a compound is studied on human CEM cells and MCF-7 mammary carcinoma cells that are or are not resistant to gemcitabine, which is an anticancer nucleoside used in chemotherapy.
(§2) The cytotoxicity (CC50) was estimated by measuring the reduction of 3-(4,5-dimethylthiazol-2-yl)-2,5-diphenyltetrazolium bromide (MTT), which is converted into insoluble violet formazan. To do this, 100 000 cells (human CEM-SS or MCF-7 lines) are inoculated per well in 100 μl of culture medium, in 96-well microtitration plates. After 24 hours, the test products are added in 100 μl and incubation is continued for 48 to 72 hours. MIT is then added in a proportion of 20 μl of a solution at 5 mg/ml in PBS. Three hours later, 100 μl of a DMF/acetic acid/HCl/SDS (sodium dodecyl sulfate) solution are added. After 3 hours at 37° C., the absorbance of the formazan is measured at 590 nm and compared with that of the untreated control.

human CEM cells = test: Cytotoxicity (MTT) on CEM cells; assay type: cell-based; conditions: CCRF-CEM; for CC50: read-out: CC50 CEM; for EC50: Tables 4 and 6, CEM cells, some values 'then plateau'
Experimental: as §1, §2

HeLa cells = test: Cytotoxic effect on HeLa cells; assay type: cell-based; set-up: unit not given beside the values; conditions: Tables 5 and 7, HeLa cells
[2] = system: FM3A/0 murine mammary carcinoma cells; test: Cytotoxic effect on FM3A/0 cells; assay type: cell-based; set-up: unit not given beside the values; conditions: Tables 5 and 7, FM3A/0 cells
Moloney sarcoma virus = test: Inhibition of transformation of mouse embryo C3H/3T3 cells induced by Moloney sarcoma virus; assay type: cell-based; set-up: MIC (minimum inhibitory concentration): unit not given here; conditions: for MIC (minimum inhibitory concentration): C3H/3T3 cells, a second bound is given in brackets for some compounds
From the text: 2.2. Inhibitory Effect on the Transformation of Mouse Embryo C3H/3T3 Cells Induced by Moloney Sarcoma Virus (Model of Infection with HIV)

[3] = system: L1210/0 murine leukemia cells; test: Cytotoxic effect on L1210/0 cells; assay type: cell-based; conditions: Tables 5 and 7, L1210/0 cells
human CEM T4 lymphocytes = test: Cytotoxic effect on CEM T4 lymphocytes; assay type: cell-based; set-up: unit not given beside the values; conditions: Tables 5 and 7, CEM cells
human Molt4/C8 cells = test: Cytotoxic effect on Molt4/C8 cells; assay type: cell-based; conditions: Tables 5 and 7, Molt4/C8 cells
HIV-1 = test: Anti-HIV-1 effect in CEM cells; assay type: cell-based
Experimental: (§3) The evaluation test is described in Roy, B.; Chambert, S.; Lepoivre M.; Aubertin, A.-M.; Balzarini, J.; Décout, J.-L., Deoxyribonucleoside 2′- or 3′-mixed disulfides: prodrugs to target ribonucleotide reductase and/or to inhibit HIV reverse transcription. J. Med. Chem. 2003, 46, 2565-2568.
(§4) The toxicity and the antiviral activities were measured at different concentrations, and their evolution as a function of the concentration makes it possible to evaluate: • the concentration at which 50% of the cells are dead in the absence of virus (CC 50) for each of the test compounds, from the change in absorbance at 540 nm of formazan as a function of the concentration of test compound, • the concentration of compound that leads to a 50% reduction in the activity of viral reverse transcriptase (EC 50). This concentration is determined from the curve representing the change in the percentage of “remaining reverse transcriptase” activity (defined as being the ratio of the activity of the reverse transcriptase in the presence of the test compound to that of the untreated cells) as a function of the concentration of test compound.
(§5) EC50: concentration required to afford 50% protection to the CEM cells against the cytopathogenicity of HIV;

HIV-2 [4] = test: Anti-HIV-2 effect in CEM/TK− cells; assay type: cell-based; conditions: Human immunodeficiency virus 2, CEM-TK(-); Third Series; CEM cells having no thymidine kinase activity
Experimental: as §3, §4, §5
• Effect in CEM not expressing thymidine kinase activity (CEM/TK^−, cells having no thymidine kinase activity).

HIV-2 [5] = test: Anti-HIV-2 effect in CEM cells; assay type: cell-based; conditions: CEM cells, read-out: EC50 HIV-2
Experimental: as §3, §4, §5

[6] = transformation of C3H/3T3 cells induced by Moloney sarcoma virus, read-out: EC50 (effective concentration 50%)
[7] = Human immunodeficiency virus 1, CCRF-CEM, Third Series, read-out: EC50 HIV-1
[8] = Human immunodeficiency virus 2, CCRF-CEM, Third Series

Compound: CC(C)CCSC1=C[C@@H](CO)O[C@H]1n1ccc(=O)[nH]c1=O [Compound 2]
- CC50 [1]: > 200 µM
- CC50 (human CEM cells; Table 3, MTT, human CEM cells): > 200 µM

Compound: Cc1cn([C@H]2C=C(SCC[Si](C)(C)C)[C@@H](CO)O2)c(=O)[nH]c1=O [Compound 4, 2′,3′-didehydro-2′,3′-dideoxy-3′-(2-trimethylsilyl)ethylthiothymidine]
- cytotoxicity at 200 μM, MCF-7 [1]: 33%
- CC50 (human CEM cells; Homo sapiens): 82 µM

Compound: C[Si](C)(C)CCSC1=C[C@@H](CO)O[C@H]1n1ccc(N)nc1=O [Compound 5, 2′,3′-Didehydro-2′,3′-dideoxy-2′-(2-trimethylsilyl)ethylthiocytidine]
- cytotoxicity at 200 μM, MCF-7 [1]: 41%
- CC50 (human CEM cells; Homo sapiens): 217 µM

Compound: Cc1cn([C@@H]2O[C@H](CO)C=C2[S+]([O-])CC[Si](C)(C)C)c(=O)[nH]c1=O (stereo partly shown) [Compound 6, 2′,3′-Didehydro-2′,3′-dideoxy-2′-(2-trimethylsilyl)ethylthiothymidine sulfoxide]
- CC50 (human CEM cells; Homo sapiens): > 200 µM

Compound: Cc1cn([C@@H]2O[C@H](CO)C=C2S(=O)(=O)CC[Si](C)(C)C)c(=O)[nH]c1=O [Compound 7, 2′,3′-Didehydro-2′,3′-dideoxy-2′-(2-trimethylsilyl)ethylthiothymidine sulfone]
- CC50 [1]: 120 µM
- CC50 (human CEM cells; Homo sapiens): 63 µM

Compound: C[Si](C)(C)CC[S+]([O-])C1=C[C@@H](CO)O[C@H]1n1ccc(=O)[nH]c1=O (stereo partly shown) [Compound 8, 2′,3′-Didehydro-2′,3′-dideoxy-2′-(2-trimethylsilyl)ethylthiouridine sulfoxide]
- CC50 (human CEM cells; Homo sapiens): > 200 µM

Compound: Cc1cn([C@@H]2O[C@H](CO)C=C2SSc2ccccc2[N+](=O)[O-])c(=O)[nH]c1=O [Compound 11]
- EC50 (human CEM cells; Homo sapiens): > 200 µM

Compound: Cc1cn([C@@H]2O[C@H](CO)C=C2SSC(Cl)(Cl)Cl)c(=O)[nH]c1=O [Compound 12, 2′,3′-didehydro-2′,3′-dideoxythymidin-2′-yl trichloromethyl disulfide]
- EC50 (human CEM cells; Homo sapiens): 46 µM

Compound: Cc1cn(C2OC(CO)C=C2SSc2ccc([N+](=O)[O-])cc2)c(=O)[nH]c1=O (stereo not shown) [Compound 14, 2′,3′-didehydro-2′,3′-dideoxythymidin-2′-yl 4-nitrophenyl disulfide]
- cytotoxic effect, HeLa (HeLa cells): 7.4 ± 1.6
- cytotoxic effect, FM3A/0 [2]: 39 ± 3
- MIC (minimum inhibitory concentration) (Moloney sarcoma virus): 100
- EC50 (Moloney sarcoma virus; [6]): 15 µM
- cytotoxic effect, L1210/0 [3]: 31 ± 3
- cytotoxic effect, CEM (human CEM T4 lymphocytes): 31 ± 1
- cytotoxic effect, Molt4/C8 (human Molt4/C8 cells): 12 ± 5

Compound: Cc1cn(C2OC(CO)C=C2SSc2ccccc2[N+](=O)[O-])c(=O)[nH]c1=O (stereo not shown) [Compound 15, 2′,3′-didehydro-2′,3′-dideoxythymidin-2′-yl 2-nitrophenyl disulfide]
- cytotoxic effect, HeLa (HeLa cells): 31 ± 1
- cytotoxic effect, FM3A/0 [2]: 175 ± 30
- MIC (minimum inhibitory concentration) (Moloney sarcoma virus): 100
- EC50 (Moloney sarcoma virus; [6]): 8.3 ± 0.4 µM
- cytotoxic effect, L1210/0 [3]: 42 ± 3
- cytotoxic effect, CEM (human CEM T4 lymphocytes): 28 ± 0
- cytotoxic effect, Molt4/C8 (human Molt4/C8 cells): 30 ± 15

Compound: O=c1ccn([C@@H]2O[C@H](CO)C=C2SSc2ccc([N+](=O)[O-])cc2)c(=O)[nH]1 [Compound 16, 2′,3′-didehydro-2′,3′-dideoxyuridin-2′-yl 4-nitrophenyl disulfide]
- EC50 (HIV-1; [7]): 37.5 ± 17.7 µM
- EC50 (HIV-2 [4]): 32.5 ± 25 µM
- EC50 (HIV-2 [5]; [8]): 9.5 ± 7.8 µM
- cytotoxic effect, HeLa (HeLa cells): 16 ± 2
- cytotoxic effect, FM3A/0 [2]: 45 ± 2
- cytotoxic effect, L1210/0 [3]: 42 ± 4
- cytotoxic effect, CEM (human CEM T4 lymphocytes): 41 ± 1
- cytotoxic effect, Molt4/C8 (human Molt4/C8 cells): 28 ± 10

Compound: O=c1ccn([C@@H]2O[C@H](CO)C=C2SSc2ccccc2[N+](=O)[O-])c(=O)[nH]1 [Compound 17, 2′,3′-didehydro-2′,3′-dideoxyuridin-2′-yl 2-nitrophenyl disulfide]
- EC50 (HIV-1; [7]): 6.5 ± 4.9 µM
- EC50 (HIV-2 [4]): > 10 µM
- EC50 (HIV-2 [5]; [8]): ≥ 10 µM
- cytotoxic effect, HeLa (HeLa cells): 29 ± 9
- cytotoxic effect, FM3A/0 [2]: 206 ± 25
- cytotoxic effect, L1210/0 [3]: 43 ± 5
- cytotoxic effect, CEM (human CEM T4 lymphocytes): 40 ± 4
- cytotoxic effect, Molt4/C8 (human Molt4/C8 cells): 42 ± 1

Compound: CSS[C@H]1C[C@H](n2ccc(N)nc2=O)O[C@@H]1CO [Compound 19, 2′,3′-Dideoxycytidin-3′-yl methyl disulfide]
- EC50 (HIV-1; [7]): 20 ± 7 µM
- EC50 (HIV-1; Human immunodeficiency virus 1, CCRF-CEM, read-out: EC50 HIV-1, First and Second Series, first table): 3.3 ± 2.3 µM
- EC50 (human CEM cells; Homo sapiens): > 200 µM
- EC50 (HIV-2 [4]): 45 ± 21 µM
- EC50 (HIV-2 [5]; Human immunodeficiency virus 2, CCRF-CEM, First and Second Series, first table): 10.5 ± 9.3 µM
- EC50 (HIV-2 [5]; [8]): 20 ± 7 µM
- EC50 (Moloney sarcoma virus; C3H/3T3, read-out: EC50 (effective concentration 50%)): 48 ± 2 µM
- MIC (minimum inhibitory concentration) (Moloney sarcoma virus): >100

Compound: CSS[C@H]1C[C@H](n2cc(Br)c(=O)[nH]c2=O)O[C@@H]1CO [Compound 23, 5-Bromo-2′,3′-dideoxyuridin-3′-yl methyl disulfide]
- EC50 (human CEM cells; Homo sapiens): 66 µM

Compound: Cc1cn([C@H]2C[C@H](SSc3ccc([N+](=O)[O-])cc3)[C@@H](CO)O2)c(=O)[nH]c1=O [Compound 25, 3′-deoxythymidin-3′-yl 4-nitrophenyl disulfide]
- cytotoxic effect, HeLa (HeLa cells): 28 ± 12
- cytotoxic effect, FM3A/0 [2]: 148 ± 16
- MIC (minimum inhibitory concentration) (Moloney sarcoma virus): 20
- EC50 (Moloney sarcoma virus; [6]): 0.89 ± 0.36 µM
- cytotoxic effect, L1210/0 [3]: 32 ± 3
- cytotoxic effect, CEM (human CEM T4 lymphocytes): 34 ± 0
- cytotoxic effect, Molt4/C8 (human Molt4/C8 cells): 29 ± 2

Compound: Cc1cn([C@H]2C[C@H](SSc3ccccc3[N+](=O)[O-])[C@@H](CO)O2)c(=O)[nH]c1=O [Compound 26, 3′-deoxythymidin-3′-yl 2-nitrophenyl disulfide]
- cytotoxic effect, HeLa (HeLa cells): 15 ± 0
- cytotoxic effect, FM3A/0 [2]: 220 ± 19
- MIC (minimum inhibitory concentration) (Moloney sarcoma virus): 20
- EC50 (Moloney sarcoma virus; [6]): 1.1 ± 0.8 µM
- cytotoxic effect, L1210/0 [3]: 33 ± 7
- cytotoxic effect, CEM (human CEM T4 lymphocytes): 32 ± 1
- cytotoxic effect, Molt4/C8 (human Molt4/C8 cells): 31 ± 5

Compound: Cc1cn([C@H]2C[C@H](SSCCCCCCO)[C@@H](CO)O2)c(=O)[nH]c1=O [Compound 30, 3′-deoxythymidin-3′-yl 6-hydroxyhexyl disulfide]
- EC50 (HIV-1; [7]): 3 µM
- EC50 (HIV-2 [4]): > 10 µM
- EC50 (HIV-2 [5]; [8]): 4.5 ± 2.1 µM

Compound: CSC1=C[C@@H](CO)O[C@H]1n1ccc(=O)[nH]c1=O [Compound 31, 2′,3′-didehydro-2′,3′-dideoxy-2′-methylthiouridine]
- EC50 (HIV-1; [7]): ≥ 10 µM
- EC50 (HIV-2 [4]): > 10 µM
- EC50 (HIV-2 [5]; [8]): 6.5 ± 0.7 µM

Compound: Nc1ncnc2c1ncn2CCOCP(=O)(O)O [PMEA, reference compound]
- EC50 (Moloney sarcoma virus; [6]): 0.53 ± 0.13 µM

Compound: C[C@H](Cn1cnc2c(N)ncnc21)OCP(=O)(O)O [Tenofovir, reference compound]
- EC50 (HIV-1; First and Second Series, first table, read-out: EC50 HIV-1): 5.5 µM
- EC50 (HIV-2 [5]; First and Second Series, first table): 2.6 µM

Compound: (R)-PMEA [reference compound]
- MIC (minimum inhibitory concentration) (Moloney sarcoma virus): >10
- EC50 (Moloney sarcoma virus; [6]): 0.23 ± 0.03 µM
